Results on eleven molecules are retold here after ChEMBL document CHEMBL2331203, “Optimization of inhibitors of the tyrosine kinase EphB4. 2. Cellular potency improvement and binding mode validation by X-ray crystallography” (J Med Chem, 2013).

Data set [1] deals with T1, Ephrin type-B receptor 4 (Homo sapiens) (UniProt P54760).
T1 sequence (whole entry): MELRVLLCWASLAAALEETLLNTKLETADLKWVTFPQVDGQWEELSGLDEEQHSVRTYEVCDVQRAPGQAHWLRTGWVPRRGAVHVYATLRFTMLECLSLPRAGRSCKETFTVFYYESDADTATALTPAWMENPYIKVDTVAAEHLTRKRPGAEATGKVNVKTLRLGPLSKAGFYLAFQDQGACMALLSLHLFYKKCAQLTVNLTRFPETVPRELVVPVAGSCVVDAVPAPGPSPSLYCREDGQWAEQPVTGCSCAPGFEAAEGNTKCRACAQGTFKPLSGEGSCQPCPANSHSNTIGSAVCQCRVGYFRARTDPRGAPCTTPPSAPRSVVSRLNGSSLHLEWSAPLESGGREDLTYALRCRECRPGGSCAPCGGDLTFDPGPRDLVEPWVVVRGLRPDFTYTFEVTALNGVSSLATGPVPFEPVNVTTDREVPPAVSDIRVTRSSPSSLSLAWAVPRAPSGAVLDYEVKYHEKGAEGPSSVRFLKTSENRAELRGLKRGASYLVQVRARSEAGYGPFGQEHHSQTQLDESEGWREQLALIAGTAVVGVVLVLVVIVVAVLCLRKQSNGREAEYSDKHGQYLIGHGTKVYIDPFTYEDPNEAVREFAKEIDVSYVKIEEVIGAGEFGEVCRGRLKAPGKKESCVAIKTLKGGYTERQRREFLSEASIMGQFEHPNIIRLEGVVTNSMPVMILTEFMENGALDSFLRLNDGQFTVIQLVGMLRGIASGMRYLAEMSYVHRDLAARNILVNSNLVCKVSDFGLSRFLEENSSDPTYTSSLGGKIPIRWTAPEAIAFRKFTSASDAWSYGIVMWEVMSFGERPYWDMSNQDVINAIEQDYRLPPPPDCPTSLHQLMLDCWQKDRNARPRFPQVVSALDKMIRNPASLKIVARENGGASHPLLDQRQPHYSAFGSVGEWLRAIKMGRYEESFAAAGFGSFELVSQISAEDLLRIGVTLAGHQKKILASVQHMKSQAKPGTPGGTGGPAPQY
In words: Inhibition of EphB4 (unknown origin) transfected in CHO cells using Z'-LYTE TYR-1 peptide as substrate at 10 uM after 2 hrs by FRET assay. The class given is cell-based.

Data set [2] can be described thus: Apparent permeability from basolateral to apical side in human Caco2 cells after 2 hrs by LC-MS/MS analysis. The class given is ADME, cell-based. The note with it: Caco-2. Background: Caco-2 monolayers are a common model of the intestinal barrier.
Data set [3] in a line: Apparent permeability from apical to basolateral side in human Caco2 cells after 2 hrs by LC-MS/MS analysis. The conditions noted are these: Caco-2. The class given is ADME, cell-based.
The nature of data set [4]: Permeability from basolateral to apical side in human Caco2 cells assessed as compound recovery after 2 hrs by LC-MS/MS analysis. The class given is ADME, cell-based. The note with it: Caco-2, read-out: permeability.
A short description of data set [5]: Permeability from apical to basolateral side in human Caco2 cells assessed as compound recovery after 2 hrs by LC-MS/MS analysis. The class given is ADME, cell-based. The conditions noted are these: Caco-2, read-out: permeability.
Data set [6] can be described thus: Cytotoxicity against human PAXF 1657L cells after 4 days by propidium iodide staining. The note with it: 96 h.
For the next data set, the system named is DU-145. In words: Cytotoxicity against human PRXF DU145 cells after 4 days by propidium iodide staining. The note with it: DU-145, 96 h.
The nature of data set [7]: Cytotoxicity against human GXF251L cells after 4 days by propidium iodide staining. The conditions noted are these: GXF 251L, 96 h.
Data set [8] is described as follows: Cytotoxicity against human RXF 393NL cells after 4 days by propidium iodide staining. The note with it: 96 h.
The nature of data set [9]: Cytotoxicity against human CXF 1103L cells after 4 days by propidium iodide staining. The note with it: 96 h.
Data set [10] is described as follows: Cytotoxicity against human LXFA 983L cells after 4 days by propidium iodide staining. The note with it: 96 h.
The target in data set [11] is Tyrosine-protein kinase Lck (Homo sapiens, UniProt P06239). In words: Inhibition of Lck (unknown origin) using [gamma-33P]ATP after 30 mins by radiometric assay.
For a further data set, the system named is K562. Nature of the data set: Cytotoxicity against human K562 cells by SRB assay. The class given is functional.
Data set [12] addresses Tyrosine-protein kinase ABL1 (Homo sapiens, UniProt P00519).
Description: Inhibition of Abl (unknown origin) using [gamma-33P]ATP after 30 mins by radiometric assay
The next data set concerns Hs-578T. Nature of the data set: Cytotoxicity against human Hs578T cells by SRB assay. The class given is functional.
The target in another data set is T2, Ephrin type-B receptor 4 (Homo sapiens, UniProt P54760).
T2 sequence (P54760 whole entry): T1 sequence (whole entry)

Data set [13] has as its target Proto-oncogene tyrosine-protein kinase Src (Homo sapiens, UniProt P12931).
Description: Inhibition of Src (unknown origin) using [gamma-33P]ATP after 30 mins by radiometric assay
Another data set is described as follows: in vitro. The conditions noted are these: human, Caco-2.
The subject of another data set is SNB-75. In words: Cytotoxicity against human SNB75 cells by SRB assay. The class given is functional. (In general: Sulforhodamine B stains cellular protein and so reports cell mass.)

Sequence of Tyrosine-protein kinase Lck (P06239 whole entry): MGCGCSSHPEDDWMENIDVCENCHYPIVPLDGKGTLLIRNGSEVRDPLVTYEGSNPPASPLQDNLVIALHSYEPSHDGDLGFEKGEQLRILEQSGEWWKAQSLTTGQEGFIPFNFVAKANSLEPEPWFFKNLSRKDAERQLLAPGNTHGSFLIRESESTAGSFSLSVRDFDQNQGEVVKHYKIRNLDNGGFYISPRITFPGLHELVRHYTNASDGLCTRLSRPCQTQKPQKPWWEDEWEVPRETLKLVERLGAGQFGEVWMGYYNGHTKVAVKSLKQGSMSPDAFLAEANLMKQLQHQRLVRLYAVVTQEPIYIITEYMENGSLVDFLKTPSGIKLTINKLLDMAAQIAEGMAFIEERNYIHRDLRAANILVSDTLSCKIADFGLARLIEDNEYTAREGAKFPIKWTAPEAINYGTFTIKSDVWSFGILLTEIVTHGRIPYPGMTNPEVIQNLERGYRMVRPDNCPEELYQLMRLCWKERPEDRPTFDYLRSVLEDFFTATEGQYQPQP
Sequence of Proto-oncogene tyrosine-protein kinase Src (P12931 2-536 limits assumed): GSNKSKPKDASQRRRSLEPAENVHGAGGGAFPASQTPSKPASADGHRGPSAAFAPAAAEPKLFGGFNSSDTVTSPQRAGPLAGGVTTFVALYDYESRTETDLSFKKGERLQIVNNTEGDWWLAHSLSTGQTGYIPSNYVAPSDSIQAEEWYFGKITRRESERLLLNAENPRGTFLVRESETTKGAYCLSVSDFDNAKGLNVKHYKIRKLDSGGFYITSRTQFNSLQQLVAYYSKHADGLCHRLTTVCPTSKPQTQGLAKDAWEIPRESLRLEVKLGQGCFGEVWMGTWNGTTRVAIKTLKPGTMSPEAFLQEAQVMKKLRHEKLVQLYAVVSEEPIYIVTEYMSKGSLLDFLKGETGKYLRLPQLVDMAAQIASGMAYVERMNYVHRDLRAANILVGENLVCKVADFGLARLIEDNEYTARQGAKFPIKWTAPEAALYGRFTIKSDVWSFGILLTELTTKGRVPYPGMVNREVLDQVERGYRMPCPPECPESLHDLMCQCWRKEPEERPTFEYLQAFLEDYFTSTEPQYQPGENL
Sequence of Tyrosine-protein kinase ABL1 (P00519 whole entry): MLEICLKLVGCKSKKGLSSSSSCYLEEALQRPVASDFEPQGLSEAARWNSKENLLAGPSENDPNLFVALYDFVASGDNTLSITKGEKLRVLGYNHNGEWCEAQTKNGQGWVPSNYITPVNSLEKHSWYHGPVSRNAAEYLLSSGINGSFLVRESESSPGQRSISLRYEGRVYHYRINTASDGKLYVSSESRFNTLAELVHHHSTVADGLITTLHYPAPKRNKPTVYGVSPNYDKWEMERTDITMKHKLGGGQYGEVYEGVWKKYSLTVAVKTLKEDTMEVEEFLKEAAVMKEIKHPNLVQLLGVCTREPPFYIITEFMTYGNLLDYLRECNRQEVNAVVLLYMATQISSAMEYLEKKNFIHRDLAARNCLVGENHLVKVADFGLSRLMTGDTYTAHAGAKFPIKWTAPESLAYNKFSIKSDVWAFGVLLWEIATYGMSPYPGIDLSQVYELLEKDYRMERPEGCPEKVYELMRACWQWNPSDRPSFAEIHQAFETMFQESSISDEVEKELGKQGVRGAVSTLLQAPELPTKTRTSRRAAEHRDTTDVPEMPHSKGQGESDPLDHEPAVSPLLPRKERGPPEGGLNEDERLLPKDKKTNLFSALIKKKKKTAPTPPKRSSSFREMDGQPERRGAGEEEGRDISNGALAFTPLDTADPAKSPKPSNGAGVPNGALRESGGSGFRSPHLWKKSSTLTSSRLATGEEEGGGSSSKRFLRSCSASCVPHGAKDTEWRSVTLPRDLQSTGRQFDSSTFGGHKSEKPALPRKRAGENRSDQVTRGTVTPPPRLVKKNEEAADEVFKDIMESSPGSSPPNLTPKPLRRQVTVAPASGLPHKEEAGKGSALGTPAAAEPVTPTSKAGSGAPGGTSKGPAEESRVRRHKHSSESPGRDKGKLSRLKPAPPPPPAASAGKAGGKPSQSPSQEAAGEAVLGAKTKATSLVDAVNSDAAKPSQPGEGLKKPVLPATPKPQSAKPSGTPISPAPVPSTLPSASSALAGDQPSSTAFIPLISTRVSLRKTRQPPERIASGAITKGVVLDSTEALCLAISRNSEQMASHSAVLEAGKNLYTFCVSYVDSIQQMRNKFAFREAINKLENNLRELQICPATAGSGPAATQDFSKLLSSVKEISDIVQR
Description for in vitro: Efflux ratio of apparent permeability from basolateral to apical side to apical to basolateral side in human Caco2 cells

On to `CCCCn1c(-c2ccccc2C(F)(F)F)cn2c3c(=O)[nH]c(=O)n(C)c3nc12`, for which, in [1], the inhibition (usually the share of the control response that was lost under treatment) was found to be 15%.
For the molecule `COc1ccccc1-n1c(-c2ccccc2)cn2c3c(=O)[nH]c(=O)n(C)c3nc12`, the Papp B→A – broadly, how fast a substance crosses the layer from the basolateral side – at 2 h in [2] came out at 35.8 ×10⁻⁶ cm/s. Also, the apical-to-basolateral permeability (Papp A→B) (in general, the apparent permeability from the apical to the basolateral side of a cell layer) at 2 h in [3] came out at 32.3 ×10⁻⁶ cm/s. The figures for the recovery at 2 h in data set [4] and in data set [5] were 76% and 71%, respectively.
With `Cc1nc(Nc2ncc(C(=O)Nc3c(C)cccc3Cl)s2)cc(N2CCN(CCO)CC2)n1` [DASATINIB], the IC50 (as a rule, the point on the concentration scale where inhibition reaches its midpoint) in data set [6] is 121 nM; in the data set with DU-145, 62.3 nM; in [7] it was 2250 nM; in data set [8], 21.7 nM; in data set [9] it was 4360 nM; in [10], 56.5 nM.
On to `CCCCn1c(-c2ccccc2)cn2c3c(=O)[nH]c(=O)n(C)c3nc12`, for which, in data set [2], the apparent permeability from basolateral to apical (Papp B→A) at 2 h was 42.5 ×10⁻⁶ cm/s. Also, the apical-to-basolateral permeability (Papp A→B) at 2 h in data set [3] was 42.5 ×10⁻⁶ cm/s. Besides, the recovery at 2 h in data set [4] was 78%; in [5] it was 69%.
In turn, `CCCCn1c(-c2c(C)cccc2C)cn2c3c(=O)[nH]c(=O)n(C)c3nc12` displayed an inhibition in data set [1] of 49%.
Take `CCCCn1c(-c2ccc(F)cc2C)cn2c3c(=O)[nH]c(=O)n(C)c3nc12`: the IC50 is 9460 nM in data set [6]; 9590 nM with DU-145; 617 nM in data set [11]; 14900 nM in [7]; 8690 nM in [8]; 4040 nM in data set [9]. This molecule also registered an IC50 in data set [10] of 6020 nM.
Turning to `COc1ccccc1-n1c(-c2cc(O)ccc2C)cn2c3c(=O)[nH]c(=O)n(C)c3nc12`, the IC50 in data set [6] worked out at 2010 nM; in the data set on DU-145 it was 2700 nM; in data set [11], 1.3 nM; in [7], 20200 nM; in [12] it was 0.92 nM; in data set [8] it was 1760 nM. Also, the 50% inhibitory concentration (IC50) in [9] turned out to be 32600 nM; at Ephrin type-B receptor 4, 130 nM; in data set [10] it was 9160 nM; in data set [13], 1.14 nM. For the same molecule, the 50% growth inhibitory concentration (GI50) (in general, the concentration at which growth is held to half of that of the control) came out at 309 nM with K562, 562 nM with Hs-578T and 128 nM with SNB-75. Also, the Papp B→A at 2 h in data set [2] stood at 23 ×10⁻⁶ cm/s. The apical-to-basolateral permeability (Papp A→B) at 2 h in [3] was determined as 3.13 ×10⁻⁶ cm/s. Besides, the recovery at 2 h amounted to 74% in [4] and 51% in data set [5]. In addition, in “in vitro”, the efflux ratio (commonly a quotient of directional permeabilities that is used to spot active efflux) worked out at 7.3.
Turning to `CCCCn1c(-c2cccc(Cl)c2)cn2c3c(=O)[nH]c(=O)n(C)c3nc12`, the inhibition in [1] came out at 22%.
For `CCCCn1c(-c2ccccc2Cl)cn2c3c(=O)[nH]c(=O)n(C)c3nc12`, the IC50 is 4940 nM in [6]; 3180 nM in the data set with DU-145; 18200 nM in [7]; 2930 nM in data set [8]; 1140 nM in data set [9]; 1620 nM in data set [10].
On to `COc1ccccc1-n1c(-c2cccc(Cl)c2)cn2c3c(=O)[nH]c(=O)n(C)c3nc12`, for which the inhibition in [1] is 12%.
`CCCCCn1c(-c2ccccc2C)cn2c3c(=O)[nH]c(=O)n(C)c3nc12`: the half-inhibitory concentration (IC50) in data set [6] is 5880 nM; in the data set on DU-145, 6970 nM; in [7], 4980 nM; in data set [8], 5580 nM; in data set [9], 2570 nM; in data set [10], 2720 nM.
